# Data: US20040102325A1, “Phenylpropynyloxypyridine herbicides” (priority 2000, published 2004)
# Legend:
# Format in all cases: in vivo
# Panicum [1] = assay: Post-emergence herbicidal action, Panicum; parameters: key: 1=total damage; 9=no action; details: post-emergence (2- to 3-leaf stage), 1000 g a.i/ha, 2 to 3 weeks, scale of nine ratings (1=total damage, 9=no action)
# Protocol: (§1) Monocotyledonous and dicotyledonous test plants are sown in standard soil in pots, and at the 2- to 3-leaf stage are sprayed with an aqueous suspension of the test compounds (prepared from a wettable powder (Example F3, b) according to WO 97/34485) or with an emulsion of the test compounds (prepared from an emulsifiable concentrate (Example F1, c) according to WO 97/34485) at an optimum rate of application of 500 litres of water/ha). The test plants are then grown on in the greenhouse under optimum conditions. After a test duration of 2 to 3 weeks, the test is evaluated in accordance with a scale of nine ratings (1=total damage, 9=no action). Ratings of from 1 to 4 (especially from 1 to 3) indicate good to very good herbicidal action. Test plants: Panicum, Euphorbia, Sida, Amaranthus, Chenopodium, Stellaria, Veronica.
# Sida = assay: Post-emergence herbicidal action, Sida; details: post-emergence (2- to 3-leaf stage), 1000 g a.i/ha, 2 to 3 weeks, scale of nine ratings (1=total damage, 9=no action)
# Protocol: as §1
# Amaranthus [2] = assay: Pre-emergence herbicidal action, Amaranthus; parameters: key: 1=total damage; 9=no action; details: 1000 g a.i./ha, 4 weeks, scale of nine ratings (1=total damage, 9=no action)
# Description: (§2) Monocotyledonous and dicotyledonous test plants are sown in standard soil in pots. Immediately after sowing, an aqueous suspension of the test compounds (prepared from a wettable powder (Example F3, b) according to WO 97/34485) or an emulsion of the test compounds (prepared from an emulsifiable concentrate (Example F1, c) according to WO 97/34485) is applied by spraying at an optimum rate of application (500 litres of water/ha). The test plants are then cultivated in a greenhouse under optimum conditions. After a test duration of 4 weeks, the test is evaluated in accordance with a scale of nine ratings (1=total damage, 9=no action). Ratings of from 1 to 4 (especially from 1 to 3) indicate good to very good herbicidal action. Test plants: Setaria, Panicum, Digitaria, Amaranthus, Stellaria, Veronica.
# Veronica [3] = assay: Pre-emergence herbicidal action, Veronica; parameters: key: 1=total damage; 9=no action; details: 1000 g a.i./ha, 4 weeks, scale of nine ratings (1=total damage, 9=no action)
# Description: as §2
# Stellaria [4] = assay: Pre-emergence herbicidal action, Stellaria; parameters: key: 1=total damage; 9=no action; details: 1000 g a.i./ha, 4 weeks, scale of nine ratings (1=total damage, 9=no action)
# Description: as §2
# Veronica [5] = assay: Post-emergence herbicidal action, Veronica; parameters: key: 1=total damage; 9=no action; details: post-emergence (2- to 3-leaf stage), 1000 g a.i/ha, 2 to 3 weeks, scale of nine ratings (1=total damage, 9=no action)
# Protocol: as §1
# Euphorbia = assay: Post-emergence herbicidal action, Euphorbia; parameters: key: 1=total damage; 9=no action; details: post-emergence (2- to 3-leaf stage), 1000 g a.i/ha, 2 to 3 weeks, scale of nine ratings (1=total damage, 9=no action)
# Protocol: as §1
# Stellaria [6] = assay: Post-emergence herbicidal action, Stellaria; parameters: key: 1=total damage; 9=no action; details: post-emergence (2- to 3-leaf stage), 1000 g a.i/ha, 2 to 3 weeks, scale of nine ratings (1=total damage, 9=no action)
# Protocol: as §1
# Chenopodium = assay: Post-emergence herbicidal action, Chenopodium; parameters: key: 1=total damage; 9=no action; details: post-emergence (2- to 3-leaf stage), 1000 g a.i/ha, 2 to 3 weeks, scale of nine ratings (1=total damage, 9=no action)
# Protocol: as §1
# Amaranthus [7] = assay: Post-emergence herbicidal action, Amaranthus; parameters: key: 1=total damage; 9=no action; details: post-emergence (2- to 3-leaf stage), 1000 g a.i/ha, 2 to 3 weeks, scale of nine ratings (1=total damage, 9=no action)
# Protocol: as §1
# Digitaria = assay: Pre-emergence herbicidal action, Digitaria; parameters: key: 1=total damage; 9=no action; details: 1000 g a.i./ha, 4 weeks, scale of nine ratings (1=total damage, 9=no action)
# Description: as §2
# Panicum [8] = assay: Pre-emergence herbicidal action, Panicum; parameters: key: 1=total damage; 9=no action; details: 1000 g a.i./ha, 4 weeks, scale of nine ratings (1=total damage, 9=no action)
# Description: as §2
# Setaria = assay: Pre-emergence herbicidal action, Setaria; parameters: key: 1=total damage; 9=no action; details: 1000 g a.i./ha, 4 weeks, scale of nine ratings (1=total damage, 9=no action)
# Description: as §2
SMILES,"Panicum, herbicidal action rating (Panicum [1])","Sida, herbicidal action rating (Sida)","Amaranthus, herbicidal action rating (Amaranthus [2])","Veronica, herbicidal action rating (Veronica [3])","Stellaria, herbicidal action rating (Stellaria [4])","Veronica, herbicidal action rating (Veronica [5])","Euphorbia, herbicidal action rating (Euphorbia)","Stellaria, herbicidal action rating (Stellaria [6])","Chenopodium, herbicidal action rating (Chenopodium)","Amaranthus, herbicidal action rating (Amaranthus [7])","Digitaria, herbicidal action rating (Digitaria)","Panicum, herbicidal action rating (Panicum [8])","Setaria, herbicidal action rating (Setaria)"
COc1cc(Cl)cnc1OCC#Cc1ccccc1 [1.094],2,2,3,1,1,3,1,2,3,1,–,–,–
N#CCc1cccc(C#CCOc2ncc(F)cc2F)c1 [1.009],2,2,2,–,3,2,1,2,1,1,1,–,–
N#CCc1cccc(C#CCOc2ccc(Br)cn2)c1 [1.008],7,3,1,1,4,2,2,4,1,1,1,1,7
N#CCc1cccc(C#CCOc2ncc(Cl)cc2F)c1 [1.011],2,2,1,1,1,2,2,2,1,2,1,1,6
COc1cc(F)cnc1OCC#Cc1cccc(CC#N)c1 [1.015],1,3,1,4,1,2,1,1,1,1,2,2,7
COc1cc(Cl)cnc1OCC#Cc1cccc(CC#N)c1 [1.016],2,2,1,1,1,1,1,1,1,1,1,2,4
N#CCc1cccc(C#CCOc2ccc(Cl)cn2)c1 [1.007],2,4,1,7,1,1,2,6,1,1,1,1,5
Cc1ccc(OC(F)F)c(OCC#Cc2cccc(CC#N)c2)n1 [1.024],–,2,1,1,1,3,2,1,1,1,–,–,1
COc1cc(C)cnc1OCC#Cc1cccc(CC#N)c1 [1.022],6,3,1,1,2,3,2,4,3,3,–,2,–
N#CCc1cccc(C#CCOc2ncc(Cl)cc2OC(F)F)c1 [1.025],–,3,1,1,1,4,2,4,7,2,2,1,1
CSc1cccnc1OCC#Cc1cccc(CC#N)c1 [1.047],4,3,1,4,1,3,1,1,1,2,1,2,1
COc1cc(Br)cnc1OCC#Cc1cccc(CC#N)c1 [1.017],4,2,1,2,1,2,1,1,1,2,2,2,5
